From US8916711B2, “Imidazothiazole-chalcone derivatives as potential anticancer agents and process for the preparation thereof” (Council of Scientific and Industrial Research, priority 2009, dated 2014)
Like-named read-outs stand apart in the source and are kept apart here.

Experiments:
Assay type in all cases: cell-based
K-562 = assay: NCI in vitro cytotoxicity (SRB, 48 h), Leukemia panel; details: Homo sapiens, K562; K-562, Leukemia; 48 h exposure
SNB-19 = assay: NCI in vitro cytotoxicity (SRB, 48 h), CNS panel; details: Homo sapiens; SNB-19, CNS; 48 h exposure
[1] = tested on: Non-small-cell lung cancer cell lines; assay: NCI in vitro cytotoxicity, whole panel; details: Homo sapiens; for CC50: read-out: Log10 LC50 (converted)
RPMI-8226 = assay: NCI in vitro cytotoxicity (SRB, 48 h), Leukemia panel; details: Homo sapiens; RPMI-8226, Leukemia; 48 h exposure
NCI-H226 = assay: NCI in vitro cytotoxicity (SRB, 48 h), Non-small cell lung panel; details: Homo sapiens, 48 h exposure
MDAMB-435 = assay: NCI in vitro cytotoxicity (SRB, 48 h), Melanoma panel; details: Homo sapiens, MDA-MB-435; MDAMB-435, Melanoma; 48 h exposure
T-47D = assay: NCI in vitro cytotoxicity (SRB, 48 h), Breast panel; details: Homo sapiens, T47D, 48 h exposure
SF-295 = assay: NCI in vitro cytotoxicity (SRB, 48 h), CNS panel; details: Homo sapiens; SF-295, CNS; 48 h exposure
OVCAR-5 = assay: NCI in vitro cytotoxicity (SRB, 48 h), Ovarian panel; details: Homo sapiens; OVCAR-5, Ovarian; 48 h exposure
ACHN = assay: NCI in vitro cytotoxicity (SRB, 48 h), Renal panel; details: Homo sapiens, 48 h exposure
IGROV1 = assay: NCI in vitro cytotoxicity (SRB, 48 h), Ovarian panel; details: Homo sapiens, IGROV-1
A549/ATCC = assay: NCI in vitro cytotoxicity (SRB, 48 h), Non-small cell lung panel; details: Homo sapiens, 48 h exposure
NCI-H322M = assay: as above; details: Homo sapiens, 48 h exposure
SK-MEL-2 = assay: NCI in vitro cytotoxicity (SRB, 48 h), Melanoma panel; details: Homo sapiens; SK-MEL-2, Melanoma; 48 h exposure
BT-549 = assay: NCI in vitro cytotoxicity (SRB, 48 h), Breast panel; details: Homo sapiens; BT-549, Breast; 48 h exposure
SNB-75 = assay: NCI in vitro cytotoxicity (SRB, 48 h), CNS panel; details: Homo sapiens; SNB-75, CNS; 48 h exposure
COLO 205 = assay: NCI in vitro cytotoxicity (SRB, 48 h), Colon panel; details: Homo sapiens; COLO 205, Colon; 48 h exposure
MOLT-4 = assay: NCI in vitro cytotoxicity (SRB, 48 h), Leukemia panel; details: Homo sapiens; MOLT-4, Leukemia; 48 h exposure
HCT-116 = assay: NCI in vitro cytotoxicity (SRB, 48 h), Colon panel; details: Homo sapiens; for GI50: HCT-116, Colon, 48 h exposure
SN12C = assay: NCI in vitro cytotoxicity (SRB, 48 h), Renal panel; details: Homo sapiens, 48 h exposure
SF-539 = assay: NCI in vitro cytotoxicity (SRB, 48 h), CNS panel; details: Homo sapiens; SF-539, CNS; 48 h exposure
MCF7 = assay: NCI in vitro cytotoxicity (SRB, 48 h), Breast panel; details: Homo sapiens; for GI50: MCF7, Breast, 48 h exposure
Description: (§1) The imidazothiazole-chalcone hybrids 7a, 7e, 7f, 8f and 19e have been tested against sixty human tumour cell lines derived from nine cancer types (leukemia, non-small cell lung cancer, colon cancer, CNS cancer, melanoma, ovarian cancer, renal cancer, prostate cancer and breast cancer) as per NCI protocol. For each compound, dose response curves for individual cell lines have been measured at a minimum of five concentrations at 10 fold dilutions. A protocol of 48 h continuous drug exposure has been used, and a sulforhodamine B (SRB) protein assay was used to estimate cell viability or growth. The concentration for 50% cell growth inhibition (GI50), total cell growth inhibition (TGI, 0% growth) and 50% cell death (LC50, […]) compared with the control has been calculated (Table-1).

MDA-MB-231/ATCC = assay: as above; details: Homo sapiens; for GI50: Breast, 48 h exposure
Description: as §1

CAKI-1 = assay: NCI in vitro cytotoxicity (SRB, 48 h), Renal panel; details: Homo sapiens; for GI50: CAKI-1, Renal, 48 h exposure
UACC-62 = assay: NCI in vitro cytotoxicity (SRB, 48 h), Melanoma panel; details: Homo sapiens; UACC-62, Melanoma; 48 h exposure
NCI-H23 = assay: NCI in vitro cytotoxicity (SRB, 48 h), Non-small cell lung panel; details: Homo sapiens, 48 h exposure
SF-268 = assay: NCI in vitro cytotoxicity (SRB, 48 h), CNS panel; details: Homo sapiens; SF-268, CNS; 48 h exposure
CNS cancer cell lines = assay: NCI in vitro cytotoxicity, whole panel; details: Homo sapiens; for CC50: read-out: Log10 LC50 (converted)
NCI-H460 = assay: NCI in vitro cytotoxicity (SRB, 48 h), Non-small cell lung panel; details: Homo sapiens, 48 h exposure
Colon cancer cell lines = assay: NCI in vitro cytotoxicity, whole panel; details: Homo sapiens; for CC50: read-out: Log10 LC50 (converted)
HCC-2998 = assay: NCI in vitro cytotoxicity (SRB, 48 h), Colon panel; details: Homo sapiens; HCC-2998, Colon; 48 h exposure
NCI/ADR-RES = assay: NCI in vitro cytotoxicity (SRB, 48 h), Ovarian panel; details: Homo sapiens, 48 h exposure
Breast cancer cell lines = assay: NCI in vitro cytotoxicity, whole panel; details: Homo sapiens; for GI50 / CC50: Breast, average of six to eight cell lines; for GI50: read-out: Log10 GI50 (converted); for CC50: read-out: Log10 LC50 (converted); for IC50: exposure period of at least 48 hrs, read-out: IC50, range over breast cell lines
A498 = assay: NCI in vitro cytotoxicity (SRB, 48 h), Renal panel; details: Homo sapiens, 48 h exposure
[2] = Non-small-cell lung, average of six to eight cell lines, read-out: Log10 GI50 (converted)
[3] = Non-small-cell lung, average of six to eight cell lines
[4] = exposure period of at least 48 hrs, read-out: GI50, range over lung cell lines
[5] = CNS cell, exposure period of at least 48 hrs, read-out: GI50, range over CNS cell lines
[6] = CNS, average of six to eight cell lines, read-out: Log10 GI50 (converted)
[7] = CNS, average of six to eight cell lines
[8] = Colon, average of six to eight cell lines, read-out: Log10 GI50 (converted)
[9] = Colon, average of six to eight cell lines
[10] = exposure period of at least 48 hrs, read-out: GI50, range over colon cell lines

## COc1cc(C(=O)/C=C/c2c(-c3ccc(F)cc3)nc3sc(C)cn23)cc(OC)c1OC [Compound 19e, (E)-3-(6-(4-fluorophenyl)-2-methylimidazo[2,1-b]thiazol-5-yl)-1-(3,4,5-trimethoxyphenyl)prop-2-en-1-one]
K-562
  GI50: 5.46 µM
SNB-19
  GI50: 87.8 µM
[1]; [2]
  GI50: 4.47 µM
[1]; [3]
  CC50: ≥ 100 µM
[1]; [4]
  GI50: 0.15 to 85.1 µM
RPMI-8226
  GI50: 2.32 µM
NCI-H226
  GI50: 9.58 µM
MDAMB-435
  GI50: 1.75 µM
T-47D
  GI50: 2.93 µM
SF-295
  GI50: 2.33 µM
OVCAR-5
  GI50: > 100 µM
ACHN
  GI50: 5.83 µM
IGROV1; IGROV1, Ovarian, 48 h exposure
  GI50: 8.71 µM
A549/ATCC
  GI50: 9.34 µM
NCI-H322M
  GI50: 8.65 µM
SK-MEL-2
  GI50: 5.75 µM
BT-549
  GI50: 3.75 µM
SNB-75
  GI50: 50.1 µM
COLO 205
  GI50: 4.94 µM
MOLT-4
  GI50: 1.62 µM
HCT-116
  GI50: 2.92 µM
SN12C
  GI50: 9.01 µM
SF-539
  GI50: 6.23 µM
MCF7
  GI50: 1.81 µM
MDA-MB-231/ATCC
  GI50: 5.38 µM
CAKI-1
  GI50: 1.78 µM
UACC-62
  GI50: 2.91 µM
NCI-H23
  GI50: 2.24 µM
SF-268
  GI50: 15.2 µM
CNS cancer cell lines; [5]
  GI50: 2.33 to 87.8 µM
CNS cancer cell lines; [6]
  GI50: 12.6 µM
CNS cancer cell lines; [7]
  CC50: ≥ 100 µM
NCI-H460
  GI50: 3.87 µM
Colon cancer cell lines; [8]
  GI50: 5.01 µM
Colon cancer cell lines; [9]
  CC50: ≥ 100 µM
Colon cancer cell lines; [10]
  GI50: 2.92 to 9.93 µM
HCC-2998
  GI50: 9.93 µM
NCI/ADR-RES
  GI50: 2.63 µM
Breast cancer cell lines
  GI50: 3.63 µM
  CC50: ≥ 100 µM
  IC50: 1.81 to 8.29 µM

## COc1cc(C(=O)/C=C/c2c(-c3ccc(F)cc3)nc3sccn23)cc(OC)c1OC [Compound 7e, (E)-3-(6-(4-fluorophenyl)imidazo[2,1-b]thiazol-5-yl)-1-(3,4,5-trimethoxyphenyl)prop-2-en-1-one]
K-562
  GI50: 1.55 µM
SNB-19
  GI50: 3.73 µM
[1]; [2]
  GI50: 2.24 µM
[1]; [3]
  CC50: 56.2 µM
[1]; [4]
  GI50: 1.05 to 3.63 µM
NCI-H226
  GI50: 1.89 µM
MDAMB-435
  GI50: 1.82 µM
T-47D
  GI50: 3.25 µM
SF-295
  GI50: 1.8 µM
OVCAR-5
  GI50: 1.92 µM
A498
  GI50: 2.73 µM
ACHN
  GI50: 2.96 µM
IGROV1; IGROV1, Ovarian, 48 h exposure
  GI50: 1.04 µM
IGROV1; IGROV1, ovarian
  GI50: 1.04 µM
IGROV1; IGROV1, Table 4, read-out: Comparative efficacy
  IC50: 1.04 µM
A549/ATCC
  GI50: 2.09 µM
NCI-H322M
  GI50: 3.63 µM
SK-MEL-2
  GI50: 2.52 µM
BT-549
  GI50: 3.76 µM
SNB-75
  GI50: 2.46 µM
COLO 205
  GI50: 2.79 µM
MOLT-4
  GI50: 2.07 µM
HCT-116; HCT-116, HCT116, Table 4, read-out: Comparative efficacy
  IC50: 2.33 µM
HCT-116
  GI50: 2.33 µM
SN12C
  GI50: 1.88 µM
SF-539
  GI50: 1.74 µM
MCF7; MCF7, MCF-7, Table 4, read-out: Comparative efficacy
  IC50: 2.24 µM
MCF7
  GI50: 2.24 µM
MDA-MB-231/ATCC
  GI50: 2.49 µM
MDA-MB-231/ATCC; Table 4, read-out: Comparative efficacy
  IC50: 2.49 µM
CAKI-1
  GI50: 0.04 µM
CAKI-1; CAKI-1, Table 4, read-out: Comparative efficacy
  IC50: 0.04 µM
UACC-62
  GI50: 1.82 µM
NCI-H23
  GI50: 2.49 µM
SF-268
  GI50: 2.52 µM
CNS cancer cell lines; [5]
  GI50: 1.74 to 3.73 µM
CNS cancer cell lines; [6]
  GI50: 2.34 µM
CNS cancer cell lines; [7]
  CC50: 52.5 µM
NCI-H460
  GI50: 2.3 µM
Colon cancer cell lines; [8]
  GI50: 2.63 µM
Colon cancer cell lines; [9]
  CC50: 38 µM
Colon cancer cell lines; [10]
  GI50: 2.11 to 2.99 µM
HCC-2998
  GI50: 2.11 µM
NCI/ADR-RES
  GI50: 2.1 µM
Breast cancer cell lines
  GI50: 2.82 µM
  CC50: ≥ 100 µM
  IC50: 2.05 to 3.76 µM
